Experiments:
lymphoma tumor = assay: Doxorubicin delivered to a lymphoma tumor using a porous tube; fluorescence and brightfield microscopy of tumor slices; format: in vivo; conditions: porous tube delivery, three tumor depths
From the text: Doxorubicin was delivered to a lymphoma tumor using a porous tube of the method. The tumor was then excised and sectioned. […] Regions of doxorubicin fluorescence and cell death are localized to a zone within the tumor slice, reflecting spatially constrained doxorubicin delivery.

mouse tumor = assay: Spatially restricted injection into a mouse tumor with indicator dyes (apoptosis signal imaging); format: in vivo; conditions: excitation 640 nm, emission 720 nm of the dye, versus control
Method: FIG. 14 depicts the use of various indicator dyes according to the method, to monitor spatially restricted delivery of compounds and resulting localized effects on regions of a tumor. A mouse tumor was injected with 1. doxorubicin; and 2. a control. Panel A illustrates excitation at 640 nm and emission at 800 nm of the dye. Panel B illustrates the doxorubicin signal (3.) observed after excitation at 500 nm and emission at 600 nm of doxorubicin. Panel C illustrates an apoptosis signal (4.) observed after excitation at 640 nm and emission at 720 nm of the dye.

[1] = tested on: Intracranial medulloblastoma model (conditional Patchedl null) mice; assay: Survival of intracranial medulloblastoma model mice; format: in vivo, mouse; conditions: injected daily with 20 mg/kg, monitored for 50 days, versus vehicle only
Method: The results of the in vivo experiment depicted in FIG. 12 predicted that Shh antagonists would have a positive effect on a mouse model of cancer. Intracranial medulloblastoma model (conditional Patchedl null) mice used in this experiment develop medulloblastoma with an early onset and 100% penetrance. Accordingly, mice were injected daily with 20 mg/kg of either A) vehicle plus IPI-926 (n=12); or B) vehicle only (n=11). The mice were monitored for 50 days for survival, and the results depicted in FIG. 13.

Row | SMILES | cell death in tumor slices (lymphoma tumor) | apoptosis signal (mouse tumor) | survival [1]
1 | COc1cccc2c1C(=O)c1c(O)c3c(c(O)c1C2=O)C[C@@](O)(C(=O)CO)C[C@@H]3O[C@H]1C[C@H](N)[C@H](O)[C@H](C)O1 [Doxorubicin] | Cell death was observed in a localized area | apoptosis overlaps with the region that received doxorubicin | 
2 | CC1=C2C[C@H]3[C@@H](CC[C@@H]4C[C@H](NS(C)(=O)=O)CC[C@@]43C)[C@@H]2CC[C@@]2(C1)O[C@@H]1C[C@H](C)CN[C@H]1[C@H]2C [IPI-926] |  |  | significantly increased survival

From patent US20210170052A1, “THERAPEUTIC METHODS AND COMPOSITIONS FOR SOLID DELIVERY” (Presage Biosciences, Inc., priority 2010, published 2021)
